The text below walks through data of PMC5218480 (PLoS ONE, 2017).

The subject of this test is MV-4-11 cells. Put plainly: Gene expression microarray analysis (Affymetrix PrimeView) and GSEA. The test is classed as cell-based, human. Also noted: RFU PODN (11730768_x_at) / Fold change /veh PODN (11730768_x_at) / RFU LINC00158 (11744669_a_at) / Fold change /veh LINC00158 (11744669_a_at) / RFU DUSP10 (11751237_a_at) / Fold change /veh DUSP10 (11751237_a_at) / RFU ID3 (11757404_x_at) / Fold change /veh ID3 (11757404_x_at) / RFU PLEKHG5 (11737974_s_at) / Fold change /veh PLEKHG5 (11737974_s_at) / RFU LRRC4B (11730491_at) / Fold change /veh LRRC4B (11730491_at) / RFU GIMAP4 (11747438_a_at) / Fold change /veh GIMAP4 (11747438_a_at) / RFU KRT8 (11758183_x_at) / Fold change /veh KRT8 (11758183_x_at) / RFU CNN1 (11734310_a_at) / Fold change /veh CNN1 (11734310_a_at) / RFU VPS37D (11726825_at) / Fold change /veh VPS37D (11726825_at) / RFU C10orf10 (11716522_x_at) / Fold change /veh C10orf10 (11716522_x_at) / RFU KIR2DL2 /// KIR2DL4 /// KIR2DL5A /// KIR2DL5B /// KIR2DS1 /// KIR2DS2 /// KIR2DS3 /// KIR2DS4 /// KIR3DL3 /// KIR3DL3 /// KIR3DS1 (11738374_at) / Fold change /veh KIR2DL2 /// KIR2DL4 /// KIR2DL5A /// KIR2DL5B /// KIR2DS1 /// KIR2DS2 /// KIR2DS3 /// KIR2DS4 /// KIR3DL3 /// KIR3DL3 /// KIR3DS1 (11738374_at) / RFU C1QL1 (11718748_at) / Fold change /veh C1QL1 (11718748_at) / RFU TMPRSS4 (11747572_a_at) / Fold change /veh TMPRSS4 (11747572_a_at) / RFU HAMP (11756126_x_at) / Fold change /veh HAMP (11756126_x_at) / RFU RNFT2 (11725882_a_at) / Fold change /veh RNFT2 (11725882_a_at) / RFU NR4A2 (11747474_a_at) / Fold change /veh NR4A2 (11747474_a_at) / RFU ABCC12 (11746883_a_at) / Fold change /veh ABCC12 (11746883_a_at) / RFU TMEM136 (11760407_x_at) / Fold change /veh TMEM136 (11760407_x_at) / RFU CLDN22 /// WWC2 (11732394_at) / Fold change /veh CLDN22 /// WWC2 (11732394_at) / RFU HLA-DPB1 (11760878_x_at) / Fold change /veh HLA-DPB1 (11760878_x_at) / RFU SPINT1 (11716480_a_at) / Fold change /veh SPINT1 (11716480_a_at) / RFU GAP43 (11754022_s_at) / Fold change /veh GAP43 (11754022_s_at) / RFU A4GNT (11735810_at) / Fold change /veh A4GNT (11735810_at) / RFU PRB3 (11715151_x_at) / Fold change /veh PRB3 (11715151_x_at) / RFU TUBB4B (11761932_at) / Fold change /veh TUBB4B (11761932_at) / RFU CAPN14 (11732068_a_at) / Fold change /veh CAPN14 (11732068_a_at) / RFU TMCC2 (11721928_a_at) / Fold change /veh TMCC2 (11721928_a_at) / RFU IRGQ (11745062_a_at) / Fold change /veh IRGQ (11745062_a_at) / RFU FAM174B (11720279_a_at) / Fold change /veh FAM174B (11720279_a_at) / RFU TMPRSS4 (11748680_a_at) / Fold change /veh TMPRSS4 (11748680_a_at) / RFU FAM212B (11763350_a_at) / Fold change /veh FAM212B (11763350_a_at) / RFU PLEKHG5 (11743358_a_at) / Fold change /veh PLEKHG5 (11743358_a_at) / RFU ZSCAN30 (11745921_a_at) / Fold change /veh ZSCAN30 (11745921_a_at) / RFU CMKLR1 (11741424_a_at) / Fold change /veh CMKLR1 (11741424_a_at) / RFU LOC101060620 /// MAPK8IP1 (11723275_at) / Fold change /veh LOC101060620 /// MAPK8IP1 (11723275_at) / RFU SPTSSB (11747773_x_at) / Fold change /veh SPTSSB (11747773_x_at) / RFU PRSS12 (11739890_at) / Fold change /veh PRSS12 (11739890_at) / RFU BIN1 (11741810_x_at) / Fold change /veh BIN1 (11741810_x_at) / RFU WNT11 (11732464_a_at) / Fold change /veh WNT11 (11732464_a_at) / RFU C10orf10 (11716521_a_at) / Fold change /veh C10orf10 (11716521_a_at) / RFU C5orf56 (11738089_at) / Fold change /veh C5orf56 (11738089_at) / RFU CYB561 (11721691_x_at) / Fold change /veh CYB561 (11721691_x_at) / RFU ANKRD19P (11752326_a_at) / Fold change /veh ANKRD19P (11752326_a_at) / RFU OR2T12 /// OR2T33 /// OR2T8 (11738714_s_at) / Fold change /veh OR2T12 /// OR2T33 /// OR2T8 (11738714_s_at) / RFU VCAN (11748164_a_at) / Fold change /veh VCAN (11748164_a_at) / RFU JSRP1 (11732532_at) / Fold change /veh JSRP1 (11732532_at) / RFU KRTAP10-11 (11738290_x_at) / Fold change /veh KRTAP10-11 (11738290_x_at) / RFU MYO3A (11730013_a_at) / Fold change /veh MYO3A (11730013_a_at) / RFU EBF3 (11725865_a_at) / Fold change /veh EBF3 (11725865_a_at) / RFU CAMK2N1 (11719241_x_at) / Fold change /veh CAMK2N1 (11719241_x_at) / RFU C5orf56 (11738088_a_at) / Fold change /veh C5orf56 (11738088_a_at) / RFU OLFML3 (11715873_a_at) / Fold change /veh OLFML3 (11715873_a_at) / RFU LOC100653217 /// NTM (11731650_a_at) / Fold change /veh LOC100653217 /// NTM (11731650_a_at) / RFU MAPK11 (11762145_a_at) / Fold change /veh MAPK11 (11762145_a_at) / RFU FIZ1 (11724087_x_at) / Fold change /veh FIZ1 (11724087_x_at) / RFU OASL (11726364_x_at) / Fold change /veh OASL (11726364_x_at) / RFU SOX15 (11748057_x_at) / Fold change /veh SOX15 (11748057_x_at) / RFU CD79A (11719716_a_at) / Fold change /veh CD79A (11719716_a_at) / RFU HIST1H1D (11736915_at) / Fold change /veh HIST1H1D (11736915_at) / RFU CASKIN2 (11723855_a_at) / Fold change /veh CASKIN2 (11723855_a_at) / RFU LOC730098 (11760151_x_at) / Fold change /veh LOC730098 (11760151_x_at) / RFU OR4N2 (11742367_at) / Fold change /veh OR4N2 (11742367_at) / RFU PRRT2 (11749266_a_at) / Fold change /veh PRRT2 (11749266_a_at) / RFU SNX32 (11753110_a_at) / Fold change /veh SNX32 (11753110_a_at) / RFU CDHR5 (11726645_a_at) / Fold change /veh CDHR5 (11726645_a_at) / RFU RCAN1 (11760418_a_at) / Fold change /veh RCAN1 (11760418_a_at) / RFU FAM167A (11723789_a_at) / Fold change /veh FAM167A (11723789_a_at) / RFU FAM26E (11764081_at) / Fold change /veh FAM26E (11764081_at) / RFU ISYNA1 (11749810_s_at) / Fold change /veh ISYNA1 (11749810_s_at) / RFU ACY1 (11761880_at) / Fold change /veh ACY1 (11761880_at) / RFU 11764098_at / Fold change /veh 11764098_at / RFU SAMD14 (11745864_x_at) / Fold change /veh SAMD14 (11745864_x_at) / RFU NPB (11741838_a_at) / Fold change /veh NPB (11741838_a_at) / RFU TMPRSS6 (11731388_a_at) / Fold change /veh TMPRSS6 (11731388_a_at) / RFU KRTAP10-2 (11738614_at) / Fold change /veh KRTAP10-2 (11738614_at) / RFU ARHGAP8 /// PRR5-ARHGAP8 (11727945_x_at) / Fold change /veh ARHGAP8 /// PRR5-ARHGAP8 (11727945_x_at) / RFU KRTAP5-7 /// NADSYN1 (11734609_at) / Fold change /veh KRTAP5-7 /// NADSYN1 (11734609_at) / RFU RASL12 (11751679_a_at) / Fold change /veh RASL12 (11751679_a_at) / RFU CDKN2B (11736163_a_at) / Fold change /veh CDKN2B (11736163_a_at) / RFU PRF1 (11729649_at) / Fold change /veh PRF1 (11729649_at) / RFU, ZNF638 /// ZNF638-IT1 / Fold change vs veh, ZNF638 /// ZNF638-IT1 / RFU, PANK3 / Fold change vs veh, PANK3 / RFU, SH3YL1 / Fold change vs veh, SH3YL1 / RFU, ZEB2 / Fold change vs veh, ZEB2 / RFU, NRIP1 / Fold change vs veh, NRIP1 / RFU, PTTG1IP / Fold change vs veh, PTTG1IP / RFU, CAPN2 / Fold change vs veh, CAPN2 / RFU, MED14 / Fold change vs veh, MED14 / RFU, SNORA58 / Fold change vs veh, SNORA58 / RFU, C1orf63 / Fold change vs veh, C1orf63 / RFU, LRRFIP1 / Fold change vs veh, LRRFIP1 / RFU, NDUFAF7 / Fold change vs veh, NDUFAF7 / RFU, SLC12A2 / Fold change vs veh, SLC12A2 / RFU, IBTK / Fold change vs veh, IBTK / RFU, ESF1 / Fold change vs veh, ESF1 / Fold change vs veh, TMEM50B / RFU, TAOK1 / Fold change vs veh, TAOK1 / RFU, ACBD3 / Fold change vs veh, ACBD3 / RFU, TMA16 / Fold change vs veh, TMA16 / RFU, RWDD3 / Fold change vs veh, RWDD3 / RFU, BCAT1 / Fold change vs veh, BCAT1 / RFU, EDEM3 / Fold change vs veh, EDEM3 / RFU, TMEM33 / Fold change vs veh, TMEM33 / RFU, WDR75 / Fold change vs veh, WDR75 / RFU, AHCTF1 / Fold change vs veh, AHCTF1 / RFU, TFRC / Fold change vs veh, TFRC / RFU, ZDHHC17 / Fold change vs veh, ZDHHC17 / RFU, NOM1 / Fold change vs veh, NOM1 / RFU, ARL8B / Fold change vs veh, ARL8B / RFU, ZBTB11 / Fold change vs veh, ZBTB11 / RFU, TAMM41 / Fold change vs veh, TAMM41 / RFU, KIAA1704 /// LOC100996395 / Fold change vs veh, KIAA1704 /// LOC100996395 / RFU, ING1 / Fold change vs veh, ING1 / RFU, TRMT61B / Fold change vs veh, TRMT61B / RFU, FUBP3 / Fold change vs veh, FUBP3 / RFU, TP53 / Fold change vs veh, TP53 / RFU, TNKS2 / Fold change vs veh, TNKS2 / RFU, ZFP14 / Fold change vs veh, ZFP14 / RFU, ACTR2 / Fold change vs veh, ACTR2 / RFU, PPP3R1 / Fold change vs veh, PPP3R1 / RFU, PIK3R1 / Fold change vs veh, PIK3R1 / RFU, HNRNPA1 / Fold change vs veh, HNRNPA1 / RFU, RNF170 / Fold change vs veh, RNF170 / RFU, ZNF28 / Fold change vs veh, ZNF28 / RFU, RNGTT / Fold change vs veh, RNGTT / RFU, OGT / Fold change vs veh, OGT / RFU, BRD1 / Fold change vs veh, BRD1 / RFU, MARS / Fold change vs veh, MARS / RFU, ZNF655 / Fold change vs veh, ZNF655 / RFU, FAHD1 / Fold change vs veh, FAHD1 / RFU, BDP1 / Fold change vs veh, BDP1 / RFU, LRRCC1 / Fold change vs veh, LRRCC1 / RFU, ARID1A / Fold change vs veh, ARID1A / RFU, ZNF146 / Fold change vs veh, ZNF146 / RFU, ZNF330 / Fold change vs veh, ZNF330 / RFU, GPN3 / Fold change vs veh, GPN3 / RFU, C9orf123 / Fold change vs veh, C9orf123 / RFU, N4BP2L2 / Fold change vs veh, N4BP2L2 / RFU, ARFIP1 / Fold change vs veh, ARFIP1 / RFU, FAM179B / Fold change vs veh, FAM179B / RFU, BCL10 / Fold change vs veh, BCL10 / RFU, UHRF1BP1L / Fold change vs veh, UHRF1BP1L / RFU, BET1 / Fold change vs veh, BET1 / RFU, CNOT2 / Fold change vs veh, CNOT2 / RFU, ZNF268 / Fold change vs veh, ZNF268 / Fold change vs veh, ZNF507 / RFU, DGCR2 / Fold change vs veh, DGCR2 / RFU, WDSUB1 / Fold change vs veh, WDSUB1 / Fold change vs veh, HSP90B1 /// MIR3652 / RFU, ADSS / Fold change vs veh, ADSS / RFU, GK / Fold change vs veh, GK / RFU, ZNF148 / Fold change vs veh, ZNF148 / RFU, TAF9 / Fold change vs veh, TAF9 / RFU, SLC1A5 / Fold change vs veh, SLC1A5 / RFU, SLMO2 / Fold change vs veh, SLMO2 / RFU, ABCC4 / Fold change vs veh, ABCC4 / RFU, LOC101060439 /// RAP1B / Fold change vs veh, LOC101060439 /// RAP1B / RFU, RFX7 / Fold change vs veh, RFX7 / RFU, GTPBP10 / Fold change vs veh, GTPBP10 / RFU, CNEP1R1 / Fold change vs veh, CNEP1R1 / RFU, BIVM-ERCC5 /// ERCC5 / Fold change vs veh, BIVM-ERCC5 /// ERCC5 / RFU, ILF3 / Fold change vs veh, ILF3 / RFU 11762660_at / Fold change /veh 11762660_at / RFU VCAN (11757783_s_at) / Fold change /veh VCAN (11757783_s_at) / RFU DDX43 (11728927_at) / Fold change /veh DDX43 (11728927_at) / RFU KRT8 (11758188_x_at) / Fold change /veh KRT8 (11758188_x_at) / RFU NKD1 (11759106_at) / Fold change /veh NKD1 (11759106_at) / RFU SRD5A1 (11742802_a_at) / Fold change /veh SRD5A1 (11742802_a_at) / RFU TPSAB1 /// TPSB2 (11721975_s_at) / Fold change /veh TPSAB1 /// TPSB2 (11721975_s_at) / RFU GSTM3 (11746129_a_at) / Fold change /veh GSTM3 (11746129_a_at) / RFU IL23R (11737362_x_at) / Fold change /veh IL23R (11737362_x_at) / RFU TMEM51 (11727254_a_at) / Fold change /veh TMEM51 (11727254_a_at) / RFU PIWIL2 (11732686_x_at) / Fold change /veh PIWIL2 (11732686_x_at) / RFU ORM1 (11744905_x_at) / Fold change /veh ORM1 (11744905_x_at) / RFU CCDC152 (11743942_at) / Fold change /veh CCDC152 (11743942_at) / RFU ECM1 (11717891_a_at) / Fold change /veh ECM1 (11717891_a_at) / RFU IL23R (11748794_a_at) / Fold change /veh IL23R (11748794_a_at) / RFU TNFAIP8L3 (11732012_x_at) / Fold change /veh TNFAIP8L3 (11732012_x_at) / RFU MBOAT4 (11741988_at) / Fold change /veh MBOAT4 (11741988_at) / RFU 11764193_at / Fold change /veh 11764193_at / RFU TMEM53 (11763286_at) / Fold change /veh TMEM53 (11763286_at) / RFU MAGEB2 (11727129_at) / Fold change /veh MAGEB2 (11727129_at) / RFU TMEM200A (11744735_a_at) / Fold change /veh TMEM200A (11744735_a_at) / RFU CCDC152 (11751479_a_at) / Fold change /veh CCDC152 (11751479_a_at) / RFU FAM211A (11726209_a_at) / Fold change /veh FAM211A (11726209_a_at) / RFU RGS16 (11746705_a_at) / Fold change /veh RGS16 (11746705_a_at) / RFU VCAN (11755009_s_at) / Fold change /veh VCAN (11755009_s_at) / RFU RHOB (11743442_s_at) / Fold change /veh RHOB (11743442_s_at) / RFU RGS16 (11720943_a_at) / Fold change /veh RGS16 (11720943_a_at) / RFU RGS16 (11720944_at) / Fold change /veh RGS16 (11720944_at) / RFU, VPS4B / Fold change vs veh, VPS4B / RFU, CREB1 / Fold change vs veh, CREB1 / RFU, DNAJC13 / Fold change vs veh, DNAJC13 / RFU, GNAQ / Fold change vs veh, GNAQ / RFU, CDK5R1 / Fold change vs veh, CDK5R1 / RFU, ZRANB3 / Fold change vs veh, ZRANB3 / RFU, CUL4A / Fold change vs veh, CUL4A / RFU, CCNY / Fold change vs veh, CCNY / RFU, UFL1 / Fold change vs veh, UFL1 / RFU, COG3 / Fold change vs veh, COG3 / RFU, DIAPH2 / Fold change vs veh, DIAPH2 / RFU, SKA2 / Fold change vs veh, SKA2 / RFU, AFF3 / Fold change vs veh, AFF3 / RFU, LMF1 / Fold change vs veh, LMF1 / RFU, IPO11 / Fold change vs veh, IPO11 / RFU, DFFB / Fold change vs veh, DFFB / RFU, FOXP1 / Fold change vs veh, FOXP1 / RFU, CARD8 / Fold change vs veh, CARD8 / RFU, STRN3 / Fold change vs veh, STRN3 / RFU, ADK / Fold change vs veh, ADK / RFU, RASSF2 / Fold change vs veh, RASSF2 / RFU, WIPF1 / Fold change vs veh, WIPF1 / RFU, LARP1B / Fold change vs veh, LARP1B / RFU, RASA1 / Fold change vs veh, RASA1 / RFU, RB1 / Fold change vs veh, RB1 / RFU, PPFIA1 / Fold change vs veh, PPFIA1 / RFU, MAT2A / Fold change vs veh, MAT2A / RFU, CCT5 / Fold change vs veh, CCT5 / RFU, WDR92 / Fold change vs veh, WDR92 / RFU, CUX1 / Fold change vs veh, CUX1 / RFU, TTC7A / Fold change vs veh, TTC7A / RFU, TMEM135 / Fold change vs veh, TMEM135 / RFU, DEPTOR / Fold change vs veh, DEPTOR / RFU, CPM / Fold change vs veh, CPM / RFU, DNAJB6 / Fold change vs veh, DNAJB6 / RFU, CACNA2D3 / Fold change vs veh, CACNA2D3 / RFU, DTX4 / Fold change vs veh, DTX4 / RFU, TFCP2 / Fold change vs veh, TFCP2 / RFU, GMCL1 /// GMCL1P1 / Fold change vs veh, GMCL1 /// GMCL1P1 / RFU, AEBP2 / Fold change vs veh, AEBP2 / RFU, SNHG1 /// SNORD22 /// SNORD25 /// SNORD26 /// SNORD27 /// SNORD28 /// SNORD29 /// SNORD31 / Fold change vs veh, SNHG1 /// SNORD22 /// SNORD25 /// SNORD26 /// SNORD27 /// SNORD28 /// SNORD29 /// SNORD31 / Fold change (Aza/veh), C12orf56 (ProbeSet 11735607_a_at) / Fold change (ACY-1035/veh), C12orf56 (ProbeSet 11735607_a_at) / Fold change (Aza/veh), FGFR1OP (ProbeSet 11751329_s_at) / Fold change (ACY-1035/veh), FGFR1OP (ProbeSet 11751329_s_at) / Fold change (Aza/veh), VPS36 (ProbeSet 11739960_a_at) / Fold change (ACY-1035/veh), VPS36 (ProbeSet 11739960_a_at) / RFU SYPL1 (11715823_x_at) / Fold change /veh SYPL1 (11715823_x_at) / RFU IGFBP7 (11715501_s_at) / Fold change /veh IGFBP7 (11715501_s_at) / RFU REEP3 (11722064_at) / Fold change /veh REEP3 (11722064_at) / RFU IGLL1 (11728026_x_at) / Fold change /veh IGLL1 (11728026_x_at): dose or concentration left out as unconfirmed. The settings on record: ProbeSet 11745260_x_at; LIST B.

As for `Nc1ncn([C@@H]2O[C@H](CO)[C@@H](O)[C@H]2O)c(=O)n1` [azacitidine], the “Fold change vs veh, SLC12A2” value is recorded as 0.91.
